Experimental data reported in patent US20040006236A1, “Diaminopropionic acid derivatives” (priority 1999, published 2004).

Experiments:
[1] = molecular target: T1, LFA-1 binding to immobilized ICAM-1 (Homo sapiens, UniProt P05107+P20701); assay: LFA-1/ICAM-1 protein-protein assay (solid-phase ELISA); conditions: read-out: LFA-1/ICAM-1 Protein-Protein Assay IC50
T1 construct: made in house; host or cells: transfected 293 cells (LFA-1)
How it was run: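 Human 5dICAM-Ig (ICAM-1 extracellular domain–IgG Fc) coated on plates; membrane-bound LFA-1 from transfected 293 cells (280 ng/mL) added with compound in Mn2+-containing HEPES buffer pH 7.2, 2 h at 37° C. Bound LFA-1 detected via anti-β2 antibody and HRP/TMB at 450 nm; IC50s determined.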

[2] = system: T lymphocyte proliferation (C57BI/6 spleen cells with irradiated BALB/c spleen cells); assay: Mixed lymphocyte reaction (MLR), one-way; format: cell-based, mice; conditions: Mus musculus, T-lymphocyte; read-out: MLR IC50
How it was run: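 One-way murine MLR: C57BI/6 responder splenocytes proliferate against irradiated BALB/c stimulators while exposed to serially diluted antagonists in supplemented RPMI1640 for 3 days. Proliferation read as [3H]-thymidine uptake over a final 6 h pulse (0.5 μCi/well), scintillation counted.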

T1 sequence (P20701 26-1170): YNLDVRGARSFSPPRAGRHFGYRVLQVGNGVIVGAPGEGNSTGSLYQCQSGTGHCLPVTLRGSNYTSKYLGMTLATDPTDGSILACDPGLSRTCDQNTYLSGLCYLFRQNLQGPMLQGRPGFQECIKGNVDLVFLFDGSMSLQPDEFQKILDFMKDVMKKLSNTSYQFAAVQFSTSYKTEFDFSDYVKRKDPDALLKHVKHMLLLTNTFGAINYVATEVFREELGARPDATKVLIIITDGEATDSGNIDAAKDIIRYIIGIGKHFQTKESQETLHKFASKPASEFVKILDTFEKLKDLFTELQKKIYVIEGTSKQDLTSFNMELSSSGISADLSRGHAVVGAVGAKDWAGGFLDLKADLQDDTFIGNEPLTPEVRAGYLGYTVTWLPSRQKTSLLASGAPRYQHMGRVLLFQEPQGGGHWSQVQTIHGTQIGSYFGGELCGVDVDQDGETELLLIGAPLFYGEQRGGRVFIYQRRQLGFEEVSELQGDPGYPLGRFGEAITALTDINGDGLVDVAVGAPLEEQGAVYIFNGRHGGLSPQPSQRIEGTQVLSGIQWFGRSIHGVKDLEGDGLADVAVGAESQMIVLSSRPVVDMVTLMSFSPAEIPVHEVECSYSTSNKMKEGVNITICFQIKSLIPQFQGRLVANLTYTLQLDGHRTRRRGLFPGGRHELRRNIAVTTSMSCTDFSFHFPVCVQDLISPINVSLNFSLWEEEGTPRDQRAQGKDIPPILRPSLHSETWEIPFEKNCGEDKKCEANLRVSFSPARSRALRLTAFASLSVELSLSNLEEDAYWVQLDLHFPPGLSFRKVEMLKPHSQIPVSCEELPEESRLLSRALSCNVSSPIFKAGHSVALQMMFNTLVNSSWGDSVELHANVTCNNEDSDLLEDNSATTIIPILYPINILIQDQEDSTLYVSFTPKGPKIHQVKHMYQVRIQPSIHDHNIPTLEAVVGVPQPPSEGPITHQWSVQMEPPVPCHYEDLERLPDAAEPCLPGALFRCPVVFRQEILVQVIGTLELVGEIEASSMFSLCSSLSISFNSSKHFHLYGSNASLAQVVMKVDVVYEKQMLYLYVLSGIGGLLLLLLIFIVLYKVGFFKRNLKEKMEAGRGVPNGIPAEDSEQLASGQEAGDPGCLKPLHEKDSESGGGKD
T1 sequence (P05107 23-769): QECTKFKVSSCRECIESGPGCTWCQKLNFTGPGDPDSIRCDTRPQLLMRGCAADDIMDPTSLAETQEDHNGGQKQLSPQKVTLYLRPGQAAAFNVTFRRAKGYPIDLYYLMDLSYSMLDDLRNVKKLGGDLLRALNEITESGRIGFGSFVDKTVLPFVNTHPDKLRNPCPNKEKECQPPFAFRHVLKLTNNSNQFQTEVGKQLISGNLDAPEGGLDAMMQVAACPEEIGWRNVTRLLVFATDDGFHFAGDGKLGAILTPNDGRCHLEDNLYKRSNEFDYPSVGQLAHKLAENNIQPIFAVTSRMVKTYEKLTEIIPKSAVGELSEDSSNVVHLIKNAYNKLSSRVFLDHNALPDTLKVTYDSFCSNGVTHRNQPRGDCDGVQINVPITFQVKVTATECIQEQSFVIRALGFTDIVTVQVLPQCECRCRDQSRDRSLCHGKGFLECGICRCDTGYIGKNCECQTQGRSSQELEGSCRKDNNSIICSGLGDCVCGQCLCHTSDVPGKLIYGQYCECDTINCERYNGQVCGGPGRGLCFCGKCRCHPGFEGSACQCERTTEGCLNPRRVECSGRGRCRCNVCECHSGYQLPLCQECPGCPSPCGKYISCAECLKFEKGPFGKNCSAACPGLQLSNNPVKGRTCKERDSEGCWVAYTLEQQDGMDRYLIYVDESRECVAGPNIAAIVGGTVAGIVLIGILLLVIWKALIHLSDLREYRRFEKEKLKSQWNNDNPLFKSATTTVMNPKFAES

| SMILES | IC50 [1] | IC50 [2] |
| --- | --- | --- |
| O=C(NCc1cccc(O)c1)c1cc(Cl)c(C(=O)N[C@@H](CNC(=O)c2cccc(O)c2)C(=O)O)c(Cl)c1 [Example 350] | 1 nM | 12 nM |
| Cc1noc(C)c1CCC(=O)NC[C@H](NC(=O)c1ccc(C(=O)NCc2cccc(O)c2)cc1Cl)C(=O)O [Example 111] | 2 nM | 500 nM |
| O=C(CCc1ccccc1)c1ccc(C(=O)N[C@@H](CNC(=O)c2cccs2)C(=O)O)c(Cl)c1 [Example 378] | 9.7 nM | 6400 nM |
| O=C(NCc1ccc(C(=O)N[C@@H](CNC(=O)c2ccccc2)C(=O)O)c(Cl)c1)c1ccc2cc[nH]c2c1 [Example 369] | 8.5 nM | 3200 nM |
| CC(=O)Nc1nc(C)c(S(=O)(=O)NC[C@H](NC(=O)c2ccc(C(=O)N[C@H](C)c3cccc4ccccc34)cc2Cl)C(=O)O)s1 [Example 362] | 8.8 nM | 15000 nM |
| O=C(NCc1ccc(C(=O)N[C@@H](CNC(=O)c2ccccc2)C(=O)O)c(Cl)c1)c1cc(O)cc(O)c1 [Example 366] | 3.4 nM | 1400 nM |
| O=C(NCc1cccc(O)c1)c1ccc(C(=O)N[C@@H](CNC(=O)C2CCC2)C(=O)O)c(Cl)c1 [Example 100] | 2.9 nM | 705 nM |
| O=C(NCc1cccc(O)c1)c1ccc(C(=O)N[C@@H](CNC(=O)C2CCCC2)C(=O)O)c(Cl)c1 [Example 101] | 1.9 nM | 565 nM |
| O=C(NCc1cccc(O)c1)c1cc(Cl)c(C(=O)N[C@@H](CNC(=O)c2sccc2Br)C(=O)O)c(Cl)c1 [Example 353] | 1.6 nM | 52 nM |
| O=C(NC[C@H](NC(=O)c1ccc(CNC(=O)c2ccccc2O)cc1Cl)C(=O)O)c1ccccc1 [Example 365] | 18 nM | 9500 nM |
| COc1ccc(/C=C/C(=O)NC[C@H](NC(=O)c2ccc(C(=O)NCc3cccc(O)c3)cc2Cl)C(=O)O)cc1 [Example 114] | 1.8 nM | 1650 nM |
| C[C@@H](NC(=O)c1cc(Cl)c(C(=O)N[C@@H](CNC(=O)c2ccccc2)C(=O)O)c(Cl)c1)c1cccc2ccccc12 [Example 347] | 3.4 nM | 250 nM |
| O=C(/C=C/c1cccnc1)NC[C@H](NC(=O)c1ccc(C(=O)NCc2cccc(O)c2)cc1Cl)C(=O)O [Example 115] | 2.2 nM | 1350 nM |
| O=C(/C=C/c1cccs1)NC[C@H](NC(=O)c1ccc(C(=O)NCc2cccc(O)c2)cc1Cl)C(=O)O [Example 116] | 1.8 nM | 1300 nM |
| O=C(NCc1cccc(O)c1)c1ccc(C(=O)N[C@@H](CNC(=O)C2CC2)C(=O)O)c(Cl)c1 [Example 97] | 1.9 nM | 1550 nM |

Second part, led by results:

| IC50 [1] | SMILES | IC50 [2] |
| --- | --- | --- |
| 3.2 nM | Cc1cccc(C(=O)NC[C@H](NC(=O)c2ccc(C(=O)NCc3cccc(O)c3)cc2Cl)C(=O)O)n1 [Example 163] | 1550 nM |
| 1.2 nM | COc1cccc(C(=O)NC[C@H](NC(=O)c2ccc(C(=O)NCc3cccc(O)c3)cc2Cl)C(=O)O)c1 [Example 76, N-[2-chloro-4-[[[(3-hydroxyphenyl)methyl]amino]-carbonyl]benzoyl]-3-(3-methoxybenzoylamino)-L-alanine] | 310 nM |
| 1.9 nM | O=C(NCc1cccc(O)c1)c1ccc(C(=O)N[C@@H](CNC(=O)c2cccc([N+](=O)[O-])c2)C(=O)O)c(Cl)c1 [Example 141] | 450 nM |
| 2.2 nM | CN(C)c1cccc(C(=O)NC[C@H](NC(=O)c2ccc(C(=O)NCc3cccc(O)c3)cc2Cl)C(=O)O)c1 [Example 127] | 455 nM |
| 0.9 nM | Cc1ccc(C(=O)NC[C@H](NC(=O)c2ccc(C(=O)NCc3cccc(O)c3)cc2Cl)C(=O)O)s1 [Example 160] | 220 nM |
| 3 nM | NS(=O)(=O)c1ccc(C(=O)NC[C@H](NC(=O)c2ccc(C(=O)NCc3cccc(O)c3)cc2Cl)C(=O)O)cc1 [Example 119] | 420 nM |
| 0.8 nM | O=C(NCc1cccc(O)c1)c1ccc(C(=O)N[C@@H](CNC(=O)c2cccc(Cl)c2)C(=O)O)c(Cl)c1 [Example 123] | 300 nM |
| 5 nM | CCOc1ccc(C(=O)NC[C@H](NC(=O)c2ccc(C(=O)NCc3cccc(O)c3)cc2Cl)C(=O)O)cc1 [Example 130] | 3000 nM |
| 3.3 nM | O=C(NCc1cccc(O)c1)c1ccc(C(=O)N[C@@H](CNC(=O)c2ccc(Cl)cc2)C(=O)O)c(Cl)c1 [Example 124] | 2500 nM |
| 4.2 nM | CN(C)c1ccc(C(=O)NC[C@H](NC(=O)c2ccc(C(=O)NCc3cccc(O)c3)cc2Cl)C(=O)O)cc1 [Example 128] | 4900 nM |
| 2 nM | O=C(NCc1cccc(O)c1)c1ccc(C(=O)N[C@@H](CNC(=O)c2ccc([N+](=O)[O-])cc2)C(=O)O)c(Cl)c1 [Example 142] | 500 nM |
| 6.6 nM | O=C(NCc1cccc(O)c1)c1ccc(C(=O)N[C@@H](CNC(=O)c2ccccc2Oc2ccccc2)C(=O)O)c(Cl)c1 [Example 144] | 1800 nM |
| 1.6 nM | O=C(NCc1cccc(O)c1)c1ccc(C(=O)N[C@@H](CNC(=O)c2cccc(Br)c2)C(=O)O)c(Cl)c1 [Example 121] | 530 nM |
| 1.1 nM | Cc1ccccc1C(=O)NC[C@H](NC(=O)c1ccc(C(=O)NCc2cccc(O)c2)cc1Cl)C(=O)O [Example 137] | 325 nM |
| 2.1 nM | COc1ccccc1C(=O)NC[C@H](NC(=O)c1ccc(C(=O)NCc2cccc(O)c2)cc1Cl)C(=O)O [Example 134] | 1550 nM |
